Read-outs that look alike come from different tables or passages of the source.
Assays:
SF-539 = test: NCI SRB cytotoxicity, CNS SF-539; assay type: cell-based; settings: Homo sapiens, 48 h exposure
Method: (§1) The pyrazolochalcones (7e, 8e, 10e, 11e, 12e, 13e and 8f) have been tested against fifty nine human tumor cell lines derived from nine cancer types (leukemia, non-small cell lung cancer, colon cancer, CNS cancer, melanoma, ovarian cancer, renal cancer, prostate cancer and breast cancer) as per the NCI protocol. For each compound, dose response curves for individual cell lines have been measured at a minimum of five concentrations at 10 fold dilutions. A protocol of 48 h continuous drug exposure has been used, and a sulforhodamine B (SRB) protein assay has been used to estimate cell viability or growth. The concentration for 50% cell growth inhibition (GI50), 50% cell death (LC50, 50% growth) and total cell growth inhibition (TGI, 0% growth) values were tabulated (Table-1). DMSO was used as control to calculate the values of GI50, LC50 and TGI. The compounds 7e, 8e, 10e, 11e, 12e, 13e and 8f has been evaluated for their in vitro cytotoxicity in […] cell lines from nine human cancer types of leukemia (K-562, SR), non-small cell lung (Hop-62, NCI-H226, NCI-H522), colon (HCT-116, HCT-15, HCC-2998), CNS (SF-539), melanoma (SK-MEL-5, UACC-62, M14), ovarian (IGROV1), renal (A498), prostate (PC3) and breast (BT-549, MDA-MB-435, HS578T) origin. The results are expressed as percent of cell growth determined relative to that of untreated control cells (Table 2).

LOX IMVI = test: NCI SRB cytotoxicity, melanoma LOX IMVI; assay type: cell-based; settings: Homo sapiens, 48 h exposure
Method: as §1

IGROV1 = test: NCI SRB cytotoxicity, ovarian IGROV1; assay type: cell-based; settings: Homo sapiens, IGROV-1, 48 h exposure
Method: as §1

Melanoma = test: NCI SRB cytotoxicity, melanoma panel average; assay type: cell-based, human; settings: average of cell lines; for GI50 / LC50: Homo sapiens; for GI50: read-out: Log10 GI50 (concentration in mol/L causing 50% growth inhibition) (converted); for LC50: read-out: Log10 LC50 (concentration in mol/L causing 50% cell death) (converted)
Method: as §1
(§2) Each cancer type represents the average of six to eight different cancer cell lines.

NCIH322M = test: NCI SRB cytotoxicity, non-small cell lung NCIH322M; assay type: cell-based; settings: Homo sapiens, NCI-H322M, 48 h exposure
Method: as §1

OVCAR-8 = test: NCI SRB cytotoxicity, ovarian OVCAR-8; assay type: cell-based; settings: Homo sapiens, 48 h exposure
Method: as §1

NCI/ADR-RES = test: NCI SRB cytotoxicity, ovarian NCI/ADR-RES; assay type: cell-based; settings: Homo sapiens, 48 h exposure
Method: as §1

UACC-62 = test: NCI SRB cytotoxicity, melanoma UACC-62; assay type: cell-based; settings: Homo sapiens, 48 h exposure
Method: as §1

HCT-116 = test: NCI SRB cytotoxicity, colon HCT-116; assay type: cell-based; settings: Homo sapiens, 48 h exposure
Method: as §1

OVCAR-4 = test: NCI SRB cytotoxicity, ovarian OVCAR-4; assay type: cell-based; settings: Homo sapiens, 48 h exposure
Method: as §1

HOP-62 = test: NCI SRB cytotoxicity, non-small cell lung HOP-62; assay type: cell-based; settings: Homo sapiens, 48 h exposure
Method: as §1

CNS = test: NCI SRB cytotoxicity, CNS panel average; assay type: cell-based, human; settings: average of cell lines; for GI50 / LC50: Homo sapiens; for GI50: read-out: Log10 GI50 (concentration in mol/L causing 50% growth inhibition) (converted); for LC50: read-out: Log10 LC50 (concentration in mol/L causing 50% cell death) (converted)
Method: as §1, §2

RPMI-8226 = test: NCI SRB cytotoxicity, leukemia RPMI-8226; assay type: cell-based; settings: Homo sapiens, 48 h exposure
Method: as §1

human tumor cell lines = test: NCI SRB cytotoxicity, all fifty nine human tumor cell lines; assay type: cell-based; design: Log10 TGI mean graph midpoint (MG_MID): unit not given here; settings: for GI50: Homo sapiens; for cytotoxicity: against cancer cell lines, in words; for LC50: read-out: Log10 LC50 mean graph midpoint (MG_MID) (converted)
Method: as §1
The mean graph midpoint values of Log10 TGI and Log10 LC50 as well as Log10 GI50 for compounds 7e, 8e, 10e, 11e, 12e, 13e and 8f is listed in Table-3. […] The mean graph mid points of Log10 TGI and Log10, LC50 have shown similar pattern to the log10 GI50 mean graph mid points.

DU-145 = test: NCI SRB cytotoxicity, prostate DU-145; assay type: cell-based; settings: Homo sapiens, 48 h exposure
Method: as §1

KM12 = test: NCI SRB cytotoxicity, colon KM12; assay type: cell-based; settings: Homo sapiens, 48 h exposure
Method: as §1

SK-MEL-2 = test: NCI SRB cytotoxicity, melanoma SK-MEL-2; assay type: cell-based; settings: Homo sapiens, 48 h exposure
Method: as §1

Colon = test: NCI SRB cytotoxicity, colon panel average; assay type: cell-based, human; settings: average of cell lines; for GI50 / LC50: Homo sapiens; for GI50: read-out: Log10 GI50 (concentration in mol/L causing 50% growth inhibition) (converted); for LC50: read-out: Log10 LC50 (concentration in mol/L causing 50% cell death) (converted)
Method: as §1, §2

Non-small cell lung = test: NCI SRB cytotoxicity, non-small cell lung panel average; assay type: cell-based, human; settings: average of cell lines; for GI50 / LC50: Homo sapiens; for GI50: read-out: Log10 GI50 (concentration in mol/L causing 50% growth inhibition) (converted); for LC50: read-out: Log10 LC50 (concentration in mol/L causing 50% cell death) (converted)
Method: as §1, §2

SN12C = test: NCI SRB cytotoxicity, renal SN12C; assay type: cell-based; settings: Homo sapiens, 48 h exposure
Method: as §1

K-562 = test: NCI SRB cytotoxicity, leukemia K-562; assay type: cell-based; settings: Homo sapiens, K562, 48 h exposure
Method: as §1

MALME-3M = test: NCI SRB cytotoxicity, melanoma MALME-3M; assay type: cell-based; settings: Homo sapiens, 48 h exposure
Method: as §1

HOP92 = test: NCI SRB cytotoxicity, non-small cell lung HOP92; assay type: cell-based; settings: Homo sapiens, HOP-92, 48 h exposure
Method: as §1

HT29 = test: NCI SRB cytotoxicity, colon HT29; assay type: cell-based; settings: Homo sapiens, HT-29, 48 h exposure
Method: as §1

SNB-19 = test: NCI SRB cytotoxicity, CNS SNB-19; assay type: cell-based; settings: Homo sapiens, 48 h exposure
Method: as §1

MDA-MB-435 = test: NCI SRB cytotoxicity, melanoma MDA-MB-435; assay type: cell-based; settings: Homo sapiens, Melanoma panel MDA-MB-435, 48 h exposure
Method: as §1

UO-31 = test: NCI SRB cytotoxicity, renal UO-31; assay type: cell-based; settings: Homo sapiens, 48 h exposure
Method: as §1

U251 = test: NCI SRB cytotoxicity, CNS U251; assay type: cell-based; settings: Homo sapiens, U-251, 48 h exposure
Method: as §1

SF-295 = test: NCI SRB cytotoxicity, CNS SF-295; assay type: cell-based; settings: Homo sapiens, 48 h exposure
Method: as §1

[1] = across fifty nine cell lines in nine cell panels, read-out: GI50 value range
[2] = against human tumor cell lines, read-out: Log10 GI50 mean graph midpoint (MG_MID) (converted)

Row | Structure (SMILES) | GI50 (SF-539) | GI50 (LOX IMVI) | GI50 (IGROV1) | LC50 (Melanoma) | Log10 TGI (concentration in mol/L causing total growth inhibition) (Melanoma) | GI50 (NCIH322M) | GI50 (OVCAR-8) | GI50 (UACC-62) | GI50 (HCT-116) | GI50 (OVCAR-4) | GI50 (HOP-62) | LC50 (CNS) | Log10 TGI (concentration in mol/L causing total growth inhibition (0% growth)) (CNS) | GI50 (RPMI-8226) | GI50 (human tumor cell lines; [1]) | GI50 (human tumor cell lines; [2]) | cytotoxicity (human tumor cell lines) | Log10 TGI mean graph midpoint (MG_MID) (human tumor cell lines; against human tumor cell lines) | LC50 (human tumor cell lines; against human tumor cell lines) | GI50 (DU-145) | also measured
1 | COc1ccc(C(=O)/C=C/c2cc(-c3cc(OC)c(OC)c(OC)c3)n[nH]2)cc1 [7e, (E)-1-(4-methoxyphenyl)-3-(3-(3,4,5-trimethoxyphenyl)-1H-pyrazol-5-yl)prop-2-en-1-one] | 1620 nM | 1580 nM | 2210 nM | 36.3 µM | −5.32 mol/L | 1920 nM | 2430 nM | 1850 nM | 1730 nM | 2200 nM | 1760 nM | 24.5 µM | −5.46 mol/L | 430 nM | 180 to 29200 nM | 1780 nM | significant cytotoxicity | −5.31 | 33.9 µM | 1430 nM | GI50 (Melanoma): 2090 nM; GI50 (NCI/ADR-RES): 2700 nM; GI50 (CNS): 1660 nM; GI50 (KM12): 1560 nM; GI50 (SK-MEL-2): 4.14 µM; GI50 (Colon): 1740 nM; LC50 (Colon): 19.1 µM; Log10 TGI (concentration in mol/L causing total growth inhibition) (Colon): −5.41 mol/L; GI50 (Non-small cell lung): 1820 nM; LC50 (Non-small cell lung): 21.9 µM; Log10 TGI (concentration in mol/L causing total growth inhibition (0% growth)) (Non-small cell lung): −5.36 mol/L; GI50 (SN12C): 1810 nM; GI50 (K-562): 2320 nM; GI50 (MALME-3M): 1860 nM; GI50 (HOP92): 1060 nM; GI50 (HT29): 1970 nM; GI50 (SNB-19): 1510 nM; GI50 (MDA-MB-435): 2200 nM; GI50 (UO-31): 1450 nM
2 | COc1ccc(C(=O)/C=C/c2cc(-c3ccc4c(c3)OCO4)n[nH]2)cc1OC [8f, (E)-3-(3-(benzo[d][1,3]dioxol-5-yl)-1H-pyrazol-5-yl)-1-(3,4-dimethoxyphenyl)prop-2-en-1-one] | 1910 nM | 1970 nM | 2790 nM | 1050 µM | −4.80 mol/L | 2480 nM | 2150 nM | 4100 nM | 2430 nM | 2110 nM | 2080 nM | 155 µM | −5.14 mol/L | 1030 nM | 180 to 29200 nM | 2750 nM | significant cytotoxicity | −4.98 | 43.7 µM | 1800 nM | Log10 GI50 (concentration in mol/L causing 50% growth inhibition) (Melanoma): −5.79 mol/L; GI50 (U251): 1580 nM; Log10 GI50 (concentration in mol/L causing 50% growth inhibition) (CNS): −5.65 mol/L; GI50 (KM12): 2860 nM; GI50 (SF-295): 2510 nM; GI50 (SK-MEL-2): 6.93 µM; LC50 (Colon): 676 µM; Log10 GI50 (concentration in mol/L causing 50% growth inhibition) (Colon): −5.52 mol/L; Log10 TGI (concentration in mol/L causing total growth inhibition) (Colon): −4.85 mol/L; LC50 (Non-small cell lung): 513 µM; Log10 GI50 (concentration in mol/L causing 50% growth inhibition) (Non-small cell lung): −5.6 mol/L; Log10 TGI (concentration in mol/L causing total growth inhibition (0% growth)) (Non-small cell lung): −5.08 mol/L; GI50 (SN12C): 3250 nM; GI50 (K-562): 2470 nM; GI50 (MALME-3M): 7320 nM; GI50 (HOP92): 2160 nM; GI50 (HT29): 2980 nM; GI50 (SNB-19): 3200 nM; GI50 (MDA-MB-435): 3030 nM; GI50 (UO-31): 2300 nM
3 | COc1ccc(C(=O)/C=C/c2cc(-c3cc(OC)c(OC)c(OC)c3)n[nH]2)cc1OC [8e, (E)-1-(3,4-dimethoxyphenyl)-3-(3-(3,4,5-trimethoxyphenyl)-1H-pyrazol-5-yl)prop-2-en-1-one] | 1270 nM | 1380 nM | 1800 nM | 6.17 µM | −5.49 mol/L | 1520 nM | 1320 nM | 1740 nM | 880 nM | 2690 nM | 1440 nM | 6.17 µM | −5.53 mol/L | 240 nM | 180 to 29200 nM | 1350 nM | significant cytotoxicity | −5.47 | 10.5 µM | 550 nM | GI50 (Melanoma): 1700 nM; GI50 (NCI/ADR-RES): 3130 nM; GI50 (CNS): 1410 nM; GI50 (KM12): 1070 nM; GI50 (SK-MEL-2): 1.85 µM; GI50 (Colon): 1410 nM; LC50 (Colon): 6.17 µM; Log10 TGI (concentration in mol/L causing total growth inhibition) (Colon): −5.52 mol/L; GI50 (Non-small cell lung): 1230 nM; LC50 (Non-small cell lung): 6.46 µM; Log10 TGI (concentration in mol/L causing total growth inhibition (0% growth)) (Non-small cell lung): −5.58 mol/L; GI50 (SN12C): 1540 nM; GI50 (K-562): 1910 nM; GI50 (MALME-3M): 1990 nM; GI50 (HT29): 1620 nM; GI50 (SNB-19): 1420 nM; GI50 (MDA-MB-435): 1340 nM; GI50 (UO-31): 1280 nM
